Data reported in patent US20180298405A1, “METHODS AND COMPOSITIONS TO INCREASE HUMAN SOMATIC CELL NUCLEAR TRANSFER (SCNT) EFFICIENCY BY REMOVING HISTONE H3-LYSINE TRIMETHYLATION, AND DERIVATION OF HUMAN NT-ESC” (CHILDREN'S MEDICAL CENTER CORPORATION, priority 2015, published 2018).

Tested on: reprogramming resistant regions (RRRs) / ZGA genes
Assay: RNA-seq of late 8-cell human SCNT embryos with or without KDM4A mRNA injection (ZGA of RRRs, KDM4A-responsive genes)
Type: cell-based
Settings: KDM4A SCNT 8-cell embryos
Source text: A sliding window (size 20 kb, step size 10 kb) was used to assess the genome-wide expression level of 4-cell and 8-cell human embryos. For each window, the expression level was quantified with normalized RPM (reads per millions of uniquely mapped reads). […] These activated regions were classed into three groups based on their expression differences in human SCNT and IVF 8-cell embryos.
The SCNT embryos used for ZGA analysis were generated using oocytes donated by a single healthy person (#64) and dermal fibroblast cells from an AMD patient (DFB-8). SCNT and IVF embryos were cultured up to late 8-cell stage, when the compaction of blastomeres is initiated, then they were treated briefly with acid Tyrode solution to remove zona pellucida. To prepare for the 8-cell SCNT embryo, oocytes from a single oocyte donor, and skin fibroblast cells from a single somatic nuclear donor were used. All the procedures are the same as described in the “Human SCNT procedure and KMD4A mRNA injection” section. Only embryos that reached the late 8-cell stage synchronically 74 hours post activation were collected and used for this experiment.
For preparation of the control IVF embryos, several donated early 8-cell stage IVF embryos were thawed and cultured for 5-7 hours to allow them to reach late 8-cell stage before being processed. After removal of the zona pellucida, the denuded embryos were washed 3 times in PBS, loaded into RNAse and DNAse free PCR tubes, spin downed, and snap frozen in liquid nitrogen. Then, they were kept at −80° C. until use. As controls, dermal fibroblast cells of somatic nuclear donors were also prepared. Those fibroblast cells were cultured in a 25 cm^2 flask in DMEM 10% FBS, and approximately 10,000 cells/donor were collected, snap frozen, and stored at −80° C. until use.
Five 8-cell embryos for each group were directly lysed and used for cDNA synthesis using SMART-Seq v4 Ultra Low Input RNA Kit (Clontech). For MEF donor, 10 ng total RNA was used for cDNA synthesis using SMART-Seq v4 Ultra Low Input RNA Kit. After amplification, the cDNA samples were fragmented using Covaris sonicator M220 to an average size of 150 bp (Covaris). Sequencing libraries were made with the fragmented DNA using NEBNext Ultra DNA Library Prep Kit for Illumina according to manufacturer's instruction (New England Biolabs) with different barcodes. For each RNA-seq analysis of hESCs, 1 μg total RNA was used for mRNA purification. Barcoded RNA-seq libraries were generated using NEBNext Ultra Directional RNA Library Prep Kit for Illumina (New England Biolabs). Single end 50 bp sequencing was performed on a HiSeq 2500 sequencer (Illumina). Sequencing reads were mapped to the human genome (hg19) with Tophat2. All programs were performed with default settings (unless otherwise specified). At least 22 million uniquely mapped reads were obtained for each sequencing library, and subsequently assembled into transcripts guided by the reference annotation (Refseq gene models) with Cufflinks v2.0.2. Expression level of each gene was quantified with normalized FPKM (fragments per kilobase of exon per million mapped fragments). Statistical analyses were performed with R (available at: “www.r-project.org/”). Independent 2 group Wilcoxon rank sum tests were used to compare distributions using the wilcox.test function in R. Pearson's r coefficient was calculated using the cor function with default parameters. The hierarchical clustering analysis of the global gene expression pattern in different samples was carried out using heatmap.2 function (gplots package) in R.

Substance: KDM4A mRNA: in vitro transcribed mRNA of full length human KDM4A/JHDM3A cDNA, an H3K9me3 demethylase (SEQ ID NO: 1)
- NOC4L Expression level (FPKM): 0.61 FPKM
- NOP58 Expression level (FPKM): 55.54 FPKM
- NUDT9 Expression level (FPKM): 1.35 FPKM
- PAGE5 Expression level (FPKM): 1.86 FPKM
- PDCD11 Expression level (FPKM): 1.88 FPKM
- PDE4DIP Expression level (FPKM): 4.04 FPKM
- PHOSPHO1 Expression level (FPKM): 0.23 FPKM
- PIK3R4 Expression level (FPKM): 1.31 FPKM
- PLBD1 Expression level (FPKM): 0.74 FPKM
- PLD2 Expression level (FPKM): 1 FPKM
- PLVAP Expression level (FPKM): 1.63 FPKM
- POLR3K Expression level (FPKM): 109.26 FPKM
- POTEM Expression level (FPKM): 1.96 FPKM
- PPM1N Expression level (FPKM): 0.89 FPKM
- PPP2CB Expression level (FPKM): 1.07 FPKM
- PRAMEF3 Expression level (FPKM): 1.48 FPKM
- PRAMEF4 Expression level (FPKM): 18.29 FPKM
- PRAMEF6 Expression level (FPKM): 14.29 FPKM
- PRAMEF10 Expression level (FPKM): 49.42 FPKM
- PRAMEF11 Expression level (FPKM): 18.18 FPKM
- PRAMEF17 Expression level (FPKM): 0.66 FPKM
- PRPF39 Expression level (FPKM): 3.48 FPKM
- PTPN22 Expression level (FPKM): 1.15 FPKM
- RAB9A Expression level (FPKM): 1.37 FPKM
- RASA2 Expression level (FPKM): 1 FPKM
- RFK Expression level (FPKM): 2.86 FPKM
- RNU11 Expression level (FPKM): 3.75 FPKM
- RP2 Expression level (FPKM): 1.31 FPKM
- RPF2 Expression level (FPKM): 102.42 FPKM
- RPS6KB2 Expression level (FPKM): 0.32 FPKM
- SAMD8 Expression level (FPKM): 4.34 FPKM
- SCO1 Expression level (FPKM): 1.99 FPKM
- SEPX1 Expression level (FPKM): 2.34 FPKM
- SERTAD1 Expression level (FPKM): 7.03 FPKM
- SFTPD Expression level (FPKM): 0.61 FPKM
- SGCG Expression level (FPKM): 1.03 FPKM
- SGPP1 Expression level (FPKM): 1.39 FPKM
- SHFM1 Expression level (FPKM): 21.11 FPKM
- SIAH1 Expression level (FPKM): 88.93 FPKM
- SNAPC1 Expression level (FPKM): 17.7 FPKM
- SNAR-C3 Expression level (FPKM): 98.14 FPKM
- SNAR-E Expression level (FPKM): 2468.68 FPKM
- SNHG9 Expression level (FPKM): 63.59 FPKM
- SNHG12 Expression level (FPKM): 7.02 FPKM
- SPINK7 Expression level (FPKM): 12.41 FPKM
- SRA1 Expression level (FPKM): 5.51 FPKM
- SSX3 Expression level (FPKM): 5.71 FPKM
- STAG3L2 Expression level (FPKM): 2.72 FPKM
- STAG3L4 Expression level (FPKM): 2.35 FPKM
- STAP2 Expression level (FPKM): 0.83 FPKM
- SUZ12P Expression level (FPKM): 1.31 FPKM
- TAC1 Expression level (FPKM): 5.72 FPKM
- TCEANC2 Expression level (FPKM): 2.9 FPKM
- TCN2 Expression level (FPKM): 0.69 FPKM
- TEN1 Expression level (FPKM): 3.43 FPKM
- THOC5 Expression level (FPKM): 5.02 FPKM
- TIMM10 Expression level (FPKM): 25.23 FPKM
- TMEM41B Expression level (FPKM): 19.19 FPKM
- TMEM92 Expression level (FPKM): 0.97 FPKM
- TMEM159 Expression level (FPKM): 8.54 FPKM
- TRIM39-RPP21 Expression level (FPKM): 1.26 FPKM
- TRIML2 Expression level (FPKM): 1.8 FPKM
- TSEN34 Expression level (FPKM): 1.75 FPKM
- TTC27 Expression level (FPKM): 0.56 FPKM
- TTC28-AS1 Expression level (FPKM): 7.79 FPKM
- UBTFL1 Expression level (FPKM): 120.09 FPKM
- UTP3 Expression level (FPKM): 2.98 FPKM
- UTP23 Expression level (FPKM): 3.29 FPKM
- UTS2 Expression level (FPKM): 1.14 FPKM
- VAMP1 Expression level (FPKM): 13.05 FPKM
- VCX2 Expression level (FPKM): 0.24 FPKM
- VCX Expression level (FPKM): 0.23 FPKM
- VPS54 Expression level (FPKM): 3.79 FPKM
- WDR77 Expression level (FPKM): 3.45 FPKM
- XAGE5 Expression level (FPKM): 0.11 FPKM
- ZCCHC10 Expression level (FPKM): 15.69 FPKM
- ZFYVE19 Expression level (FPKM): 4.05 FPKM
- ZNF92 Expression level (FPKM): 21.84 FPKM
- ZNF100 Expression level (FPKM): 3.76 FPKM
- ZNF174 Expression level (FPKM): 1.13 FPKM
- ZNF208 Expression level (FPKM): 1.74 FPKM
- ZNF254 Expression level (FPKM): 1.32 FPKM
- ZNF273 Expression level (FPKM): 4.43 FPKM
- ZNF280A Expression level (FPKM): 84.94 FPKM
- ZNF326 Expression level (FPKM): 2.8 FPKM
- ZNF345 Expression level (FPKM): 1.41 FPKM
- ZNF486 Expression level (FPKM): 2.77 FPKM
- ZNF487P Expression level (FPKM): 3.02 FPKM
- ZNF625-ZNF20 Expression level (FPKM): 1.95 FPKM
- ZNF625 Expression level (FPKM): 1 FPKM
- ZNF669 Expression level (FPKM): 8.14 FPKM
- ZNF675 Expression level (FPKM): 15.04 FPKM
- ZNF676 Expression level (FPKM): 4.61 FPKM
- ZNF679 Expression level (FPKM): 86.94 FPKM
- ZNF680 Expression level (FPKM): 5.58 FPKM
- ZNF684 Expression level (FPKM): 7.21 FPKM
- ZNF700 Expression level (FPKM): 1.86 FPKM
- ZNF724P Expression level (FPKM): 13.16 FPKM
- ZNF729 Expression level (FPKM): 0.94 FPKM
- ZNF735 Expression level (FPKM): 33.19 FPKM
- ZNF789 Expression level (FPKM): 5.2 FPKM
- ZNF791 Expression level (FPKM): 3.79 FPKM
- ZNF826P Expression level (FPKM): 2.07 FPKM
- ZNHIT6 Expression level (FPKM): 3.88 FPKM
